“And” between values parts separate entries of the source, which are not always exact repeats. Equal values may be shown once. Read-outs that look alike come from different tables or passages of the source.
What was measured:
DAT [1] = target: T1, DAT (Homo sapiens, UniProt Q01959); experiment: [3H]dopamine uptake inhibition in HEK 293 cells overexpressing human DAT; format: cell-based; conditions: for increase of dopamine uptake: anomalous increase at some concentrations, non-sigmoidal curves; for DAT/SERT ratio: 1/DAT IC50 : 1/SERT IC50, mean and 95% confidence interval
T1 sequence (Q01959 whole entry): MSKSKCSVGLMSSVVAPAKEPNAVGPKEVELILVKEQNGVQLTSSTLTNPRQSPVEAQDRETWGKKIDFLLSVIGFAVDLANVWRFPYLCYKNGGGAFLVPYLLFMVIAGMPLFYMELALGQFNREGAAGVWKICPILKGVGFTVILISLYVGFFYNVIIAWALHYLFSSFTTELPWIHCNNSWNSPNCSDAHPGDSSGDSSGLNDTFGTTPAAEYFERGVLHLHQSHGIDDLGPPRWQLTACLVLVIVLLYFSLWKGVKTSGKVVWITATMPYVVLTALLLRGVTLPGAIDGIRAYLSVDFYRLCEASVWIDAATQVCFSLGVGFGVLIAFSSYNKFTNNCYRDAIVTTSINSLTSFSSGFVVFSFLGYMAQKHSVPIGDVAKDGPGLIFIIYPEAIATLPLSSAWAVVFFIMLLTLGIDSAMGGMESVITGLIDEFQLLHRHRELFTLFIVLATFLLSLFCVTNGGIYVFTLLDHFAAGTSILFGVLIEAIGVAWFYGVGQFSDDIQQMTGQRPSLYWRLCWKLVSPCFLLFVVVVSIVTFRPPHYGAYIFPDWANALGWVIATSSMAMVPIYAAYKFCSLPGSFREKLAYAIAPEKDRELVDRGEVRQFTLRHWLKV

[2] = target: human 5-HT transporter (SERT) (Homo sapiens, UniProt P31645); experiment: [3H]5-HT uptake inhibition in HEK 293 cells overexpressing human SERT; format: cell-based
Sequence of human 5-HT transporter (SERT) (P31645 whole entry): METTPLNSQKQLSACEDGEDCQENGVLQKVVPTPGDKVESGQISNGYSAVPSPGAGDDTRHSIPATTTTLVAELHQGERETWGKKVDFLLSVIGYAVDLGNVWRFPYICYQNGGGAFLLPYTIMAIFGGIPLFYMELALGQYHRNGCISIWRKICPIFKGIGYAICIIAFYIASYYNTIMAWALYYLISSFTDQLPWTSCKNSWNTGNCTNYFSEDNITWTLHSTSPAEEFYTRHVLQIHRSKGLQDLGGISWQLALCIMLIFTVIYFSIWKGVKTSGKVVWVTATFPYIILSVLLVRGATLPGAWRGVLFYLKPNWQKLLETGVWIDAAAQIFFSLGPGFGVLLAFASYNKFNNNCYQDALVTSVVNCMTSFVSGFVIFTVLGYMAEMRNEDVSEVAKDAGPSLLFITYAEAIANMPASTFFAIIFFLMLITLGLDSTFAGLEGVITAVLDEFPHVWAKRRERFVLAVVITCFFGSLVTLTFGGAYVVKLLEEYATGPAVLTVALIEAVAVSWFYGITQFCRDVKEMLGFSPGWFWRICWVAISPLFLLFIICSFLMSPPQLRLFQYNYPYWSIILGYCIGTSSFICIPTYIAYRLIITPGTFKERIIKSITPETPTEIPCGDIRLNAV

NET [3] = target: T2, NET (Homo sapiens, UniProt P23975); experiment: Radioligand binding, N-methyl-[3H]nisoxetine displacement
T2 sequence (P23975 whole entry): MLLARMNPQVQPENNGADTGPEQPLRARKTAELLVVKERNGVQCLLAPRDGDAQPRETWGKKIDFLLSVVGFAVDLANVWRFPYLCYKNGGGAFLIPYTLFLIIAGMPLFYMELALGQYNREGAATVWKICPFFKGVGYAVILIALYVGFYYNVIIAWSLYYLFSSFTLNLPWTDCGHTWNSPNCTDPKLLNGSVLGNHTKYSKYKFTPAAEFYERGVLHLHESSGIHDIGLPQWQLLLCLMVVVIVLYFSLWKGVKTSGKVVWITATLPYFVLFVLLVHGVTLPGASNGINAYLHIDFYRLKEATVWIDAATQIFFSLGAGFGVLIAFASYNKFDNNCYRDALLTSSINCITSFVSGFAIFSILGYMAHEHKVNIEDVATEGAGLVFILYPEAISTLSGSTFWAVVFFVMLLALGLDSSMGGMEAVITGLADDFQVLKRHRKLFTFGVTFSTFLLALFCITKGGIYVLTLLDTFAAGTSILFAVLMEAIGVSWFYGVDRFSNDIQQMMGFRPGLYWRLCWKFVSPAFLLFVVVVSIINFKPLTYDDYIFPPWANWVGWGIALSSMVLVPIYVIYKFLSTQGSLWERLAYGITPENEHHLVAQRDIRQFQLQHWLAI

DAT [4] = target: T1, DAT; experiment: Radioligand binding, [3H]WIN35,428 displacement
SERT = SERT (Homo sapiens, UniProt P31645); experiment: Radioligand binding, [3H]citalopram displacement
Sequence of SERT (P31645 whole entry): as the sequence (P31645 whole entry) above

dopamine D2 receptors = dopamine D2 receptors (Homo sapiens, UniProt P14416); experiment: Radioligand binding, [3H]spiperone displacement
Sequence of dopamine D2 receptors (P14416 whole entry): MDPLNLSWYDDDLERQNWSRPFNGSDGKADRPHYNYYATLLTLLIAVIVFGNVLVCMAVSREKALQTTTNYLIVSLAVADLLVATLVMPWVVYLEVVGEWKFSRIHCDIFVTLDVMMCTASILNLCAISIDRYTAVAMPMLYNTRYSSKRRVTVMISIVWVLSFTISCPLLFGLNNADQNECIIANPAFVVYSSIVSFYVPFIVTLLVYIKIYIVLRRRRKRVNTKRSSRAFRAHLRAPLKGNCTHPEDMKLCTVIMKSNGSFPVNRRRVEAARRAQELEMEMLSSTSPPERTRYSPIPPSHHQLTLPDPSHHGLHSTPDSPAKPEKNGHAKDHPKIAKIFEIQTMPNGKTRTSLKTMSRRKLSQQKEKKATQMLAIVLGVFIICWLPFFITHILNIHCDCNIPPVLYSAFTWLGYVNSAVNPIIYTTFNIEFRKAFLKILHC

[5] = target: T3, α1 adrenergic receptor (α1A) (Homo sapiens, UniProt P35348); experiment: Radioligand binding, [3H]prazosin displacement
T3 sequence (P35348 1-466): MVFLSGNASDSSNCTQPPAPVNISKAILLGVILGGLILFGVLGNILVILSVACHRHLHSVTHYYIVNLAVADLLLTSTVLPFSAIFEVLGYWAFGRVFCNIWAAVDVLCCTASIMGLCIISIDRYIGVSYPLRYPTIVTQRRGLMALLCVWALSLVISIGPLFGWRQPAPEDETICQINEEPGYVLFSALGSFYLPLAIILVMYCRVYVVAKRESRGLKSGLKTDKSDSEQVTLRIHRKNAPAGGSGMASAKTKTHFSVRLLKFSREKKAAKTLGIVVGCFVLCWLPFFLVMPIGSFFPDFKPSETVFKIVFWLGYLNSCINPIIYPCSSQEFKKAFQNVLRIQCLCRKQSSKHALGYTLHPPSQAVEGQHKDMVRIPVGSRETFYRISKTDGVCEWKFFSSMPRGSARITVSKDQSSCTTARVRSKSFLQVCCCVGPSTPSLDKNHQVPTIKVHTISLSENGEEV

[6] = target: T4, α2 adrenergic receptor (α2A) (Homo sapiens, UniProt P08913); experiment: Radioligand binding, [3H]rauwolscine displacement
T4 sequence (P08913 1-465): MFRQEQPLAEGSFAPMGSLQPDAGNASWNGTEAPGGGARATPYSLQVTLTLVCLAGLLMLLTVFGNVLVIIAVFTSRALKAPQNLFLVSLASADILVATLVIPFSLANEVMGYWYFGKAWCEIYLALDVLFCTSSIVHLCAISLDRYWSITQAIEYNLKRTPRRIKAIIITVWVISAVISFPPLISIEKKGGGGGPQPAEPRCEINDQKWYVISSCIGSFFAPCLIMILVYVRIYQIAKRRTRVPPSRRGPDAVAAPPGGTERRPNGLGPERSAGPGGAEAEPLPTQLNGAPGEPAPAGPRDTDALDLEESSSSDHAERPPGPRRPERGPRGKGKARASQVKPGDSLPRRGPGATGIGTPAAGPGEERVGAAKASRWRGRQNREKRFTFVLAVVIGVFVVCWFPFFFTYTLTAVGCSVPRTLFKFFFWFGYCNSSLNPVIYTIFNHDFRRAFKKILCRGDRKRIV

5-HT1A receptor = target: T5, 5-HT1A receptor (Homo sapiens, UniProt P08908); experiment: Radioligand binding, [3H]8-hydroxy-2-
T5 sequence (P08908 1-422): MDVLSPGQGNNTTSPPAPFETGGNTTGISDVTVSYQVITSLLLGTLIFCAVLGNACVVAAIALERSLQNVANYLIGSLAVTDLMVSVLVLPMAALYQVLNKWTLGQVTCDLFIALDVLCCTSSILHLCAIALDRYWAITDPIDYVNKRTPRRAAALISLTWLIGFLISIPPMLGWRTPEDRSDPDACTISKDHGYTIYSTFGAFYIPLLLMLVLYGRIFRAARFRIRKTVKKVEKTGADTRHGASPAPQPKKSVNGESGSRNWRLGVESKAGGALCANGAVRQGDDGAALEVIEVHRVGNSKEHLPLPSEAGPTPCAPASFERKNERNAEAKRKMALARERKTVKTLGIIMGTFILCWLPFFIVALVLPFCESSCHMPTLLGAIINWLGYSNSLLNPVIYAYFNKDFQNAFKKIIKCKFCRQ

5-HT2A receptor = 5-HT2A receptor (Homo sapiens, UniProt P28223); experiment: Radioligand binding, [3H]ketanserin displacement
Sequence of 5-HT2A receptor (P28223 whole entry): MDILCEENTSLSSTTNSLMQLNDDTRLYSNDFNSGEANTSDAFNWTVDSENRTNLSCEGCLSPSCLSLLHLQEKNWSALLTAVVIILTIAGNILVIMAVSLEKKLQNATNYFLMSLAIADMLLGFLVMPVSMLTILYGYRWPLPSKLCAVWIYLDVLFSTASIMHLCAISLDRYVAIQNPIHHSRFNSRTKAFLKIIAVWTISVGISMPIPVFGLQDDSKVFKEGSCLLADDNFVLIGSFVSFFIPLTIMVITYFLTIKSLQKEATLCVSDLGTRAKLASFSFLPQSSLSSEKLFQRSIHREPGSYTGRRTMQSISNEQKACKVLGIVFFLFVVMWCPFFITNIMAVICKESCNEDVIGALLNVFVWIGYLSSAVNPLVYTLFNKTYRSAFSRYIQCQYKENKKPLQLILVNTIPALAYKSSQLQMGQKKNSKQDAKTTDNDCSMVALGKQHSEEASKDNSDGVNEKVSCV

5-HT2C receptor = target: T6, 5-HT2C receptor (Homo sapiens, UniProt P28335); experiment: biochemical; format: binding
T6 sequence (P28335 33-458): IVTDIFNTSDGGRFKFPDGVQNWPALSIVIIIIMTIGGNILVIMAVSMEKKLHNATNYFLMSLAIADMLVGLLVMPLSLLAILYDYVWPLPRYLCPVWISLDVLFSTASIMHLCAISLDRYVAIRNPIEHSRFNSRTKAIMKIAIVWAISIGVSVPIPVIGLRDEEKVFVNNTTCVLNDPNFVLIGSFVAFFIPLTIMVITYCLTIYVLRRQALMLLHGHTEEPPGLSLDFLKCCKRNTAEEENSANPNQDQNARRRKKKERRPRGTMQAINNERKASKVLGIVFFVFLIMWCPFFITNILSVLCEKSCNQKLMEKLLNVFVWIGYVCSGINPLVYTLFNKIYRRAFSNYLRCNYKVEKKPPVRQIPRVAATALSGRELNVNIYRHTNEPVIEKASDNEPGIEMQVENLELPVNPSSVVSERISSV

rat TAAR1 = rat TAAR1 (Rattus norvegicus, UniProt Q923Y9); experiment: Radioligand binding, [3H]RO5166017 displacement
Sequence of rat TAAR1 (Q923Y9 whole entry): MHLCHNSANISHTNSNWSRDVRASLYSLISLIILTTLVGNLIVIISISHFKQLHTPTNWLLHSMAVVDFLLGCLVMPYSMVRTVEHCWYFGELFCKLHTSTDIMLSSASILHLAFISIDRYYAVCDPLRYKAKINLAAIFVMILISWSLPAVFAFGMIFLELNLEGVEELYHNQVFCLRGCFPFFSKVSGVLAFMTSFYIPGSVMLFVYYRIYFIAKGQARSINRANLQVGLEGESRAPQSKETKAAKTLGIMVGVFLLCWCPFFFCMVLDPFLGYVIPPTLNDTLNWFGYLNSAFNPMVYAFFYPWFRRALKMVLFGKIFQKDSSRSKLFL

mouse TAAR1 = mouse TAAR1 (Mus musculus, UniProt Q923Y8); experiment: Radioligand binding, [3H]RO5166017 displacement
Sequence of mouse TAAR1 (Q923Y8 whole entry): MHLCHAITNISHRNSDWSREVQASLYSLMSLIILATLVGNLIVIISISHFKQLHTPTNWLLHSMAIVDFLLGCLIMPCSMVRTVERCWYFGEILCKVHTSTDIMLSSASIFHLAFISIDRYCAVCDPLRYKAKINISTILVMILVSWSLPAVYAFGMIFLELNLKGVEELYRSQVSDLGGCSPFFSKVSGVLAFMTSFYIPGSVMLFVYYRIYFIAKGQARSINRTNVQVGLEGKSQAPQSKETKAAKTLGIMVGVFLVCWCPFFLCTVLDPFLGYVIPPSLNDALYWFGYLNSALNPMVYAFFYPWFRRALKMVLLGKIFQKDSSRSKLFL

[7] = rat plasma, ref Elmore et al., 2017, cited from earlier work; for amount in plasma as % of parent compound methylone: subcutaneous injections of methylone; for time at which Cmax was reached: subcutaneous methylone
[8] = rats, ref Anizan et al., 2016, cited from earlier work; for maximal concentration as % of the parent compound MDPV: subcutaneous 0.5–2 mg/kg MDPV; for Tmax: subcutaneous injections of 0.5–2 mg/kg MDPV
NET [9] = target: T2, NET; experiment: [3H]norepinephrine uptake inhibition in HEK 293 cells overexpressing human NET; format: cell-based
[10] = healthy human subjects, oral MDMA; ref Schmid et al., 2016; cited from earlier work
[11] = after subcutaneous methylone, ref Stefkova et al., 2017, cited from earlier work
[12] = read-out: SERT IC50, 5-HT uptake inhibition, mean and 95% confidence interval
[13] = read-out: SERT Ki, mean±SD, n=3
[14] = read-out: 5-HT1A Ki, mean±SD, n=3
[15] = read-out: 5-HT2A Ki, mean±SD, n=3
[16] = read-out: 5-HT2c Ki, mean±SD, n=3
[17] = read-out: TAAR1rat Ki, mean±SD, n=3
[18] = read-out: TAAR1mouse Ki, mean±SD, n=3

Row | Structure (SMILES) | increase of dopamine uptake (DAT [1]) | IC50 [2, 12] [µM] | Ki (NET [3]; read-out: NET Ki, mean±SD, n=3) | Ki (DAT [4]; read-out: DAT Ki, mean±SD, n=3) | Ki (SERT; [13]) [µM] | Ki (dopamine D2 receptors; read-out: D2 Ki, mean±SD, n=3) [µM] | Ki ([5]; read-out: α1A Ki, mean±SD, n=3) [µM] | Ki ([6]; read-out: α2A Ki, mean±SD, n=3) [µM] | Ki (5-HT1A receptor; [14]) [µM] | Ki (5-HT2A receptor; [15]) [µM] | Ki (5-HT2C receptor; [16]) | Ki (rat TAAR1; [17]) [µM] | Ki (mouse TAAR1; [18]) [µM] | amount in plasma as % of parent compound methylone [7] | time at which Cmax was reached [7] [min] | Tmax [8] [h] | DAT/SERT ratio (DAT [1]) | other results
1 | CNC(C)C(=O)c1ccc(O)c(O)c1 (stereo not drawn) [HHMC, 3,4-Dihydroxymethcathinone] | more than 200% | > 100 | 4 ± 1 µM | 7.1 ± 0.3 µM | > 7.4 | > 13 | > 9.5 | > 4.7 | > 18 | > 12 | > 5.1 µM | 2.2 ± 0.1 | > 4.4 | 10–13% | 60 to 70 |  |  | 
2 | CCCC(C(=O)c1ccc(O)c(O)c1)N1CCCC1 (stereo not drawn) [HHPV, 3,4-dihydroxypyrovalerone] |  | > 100 | 0.11 ± 0.01 µM | 0.02 µM and 0.023 µM | > 7.4 | > 13 | > 9.5 | > 4.7 | 4.3 ± 1.6 | > 12 | > 5.1 µM | > 5.2 | > 4.4 |  |  | 3.43 to 4.28 |  | maximal concentration as % of the parent compound MDPV [8]: 12–19%
3 | CNC(C)Cc1ccc(O)c(O)c1 (stereo not drawn) [HHMA, 3,4-dihydroxymethamphetamine] | more than 200% | 65 | 0.94 ± 0.14 µM | 1.9 µM | > 7.4 | > 13 | > 9.5 | 1.3 ± 0.1 | > 18 | > 12 | > 5.1 µM | 3 ± 0.3 | > 4.4 |  |  |  |  | 
4 | CNC(C)Cc1ccc2c(c1)OCO2 (stereo not drawn) [MDMA, 3,4-Methylenedioxymethamphetmine, reference compound] |  |  |  |  |  |  |  |  |  |  |  |  |  |  |  |  |  | IC50 (NET [9]): 0.38 µM; IC50 (DAT [1]): 21 µM; IC50 [2]: 2.5 µM; Ki (NET [3]): > 8.7 µM; Ki (DAT [4]): > 8.5 µM; Ki (SERT): > 7.5 µM; Ki (dopamine D2 receptors): > 13 µM; Ki (5-HT2A receptor): 4.6 ± 1.1 µM; Ki (rat TAAR1): 0.25 ± 0.01 µM; Ki (mouse TAAR1): 3.1 ± 0.7 µM
5 | CNC(C)Cc1ccc(O)c(OC)c1 (stereo not drawn) [HMMA, 4-hydroxy-3-methoxymethamphetamine] |  | 20 | > 8.8 µM | > 8.5 µM | > 7.4 | > 13 | > 9.5 | > 4.7 | > 18 | > 12 | > 5.1 µM | 0.25 ± 0.04 | 0.45 ± 0.05 |  |  |  | 3.6 (1.4–8.9) | Cmax as % of the Cmax of MDMA [10]: 9–48%; Cmax of unconjugated form as % of the Cmax of MDMA [10]: 1–3%
6 | CCCC(C(=O)c1ccc(O)c(OC)c1)N1CCCC1 (stereo not drawn) [HMPV, 4-hydroxy-3-methyoxypyrovalerone] |  | > 100 | 6.2 ± 0.7 µM | 2 ± 0.2 µM | > 7.4 | > 13 | > 9.5 | > 4.7 | > 17 | > 12 | > 5.1 µM | > 5.2 | > 4.4 |  |  | 3.15 to 3.43 |  | maximal concentration as % of the parent compound MDPV [8]: 53–61%
7 | CC(N)C(=O)c1ccc2c(c1)OCO2 (stereo not drawn) [MDC, 3,4-methylenedioxycathinone] |  | 13 | > 8.8 µM | > 8.5 µM | > 7.4 | > 13 | > 9.5 | > 4.7 | > 17 | > 12 | > 5.1 µM |  | 3.5 ± 0.3 | 10–13% | 30 to 45 |  | 0.38 (0.24–0.59) | delay of serum peak relative to methylone [11]: 30 min; serum level as % of the methylone levels ([11]; peak): about 20%
8 | CNC(C)C(=O)c1ccc(O)c(OC)c1 (stereo not drawn) [HMMC, 4-hydroxy-3-methyoxymethcathinone] |  | > 100 | 4 µM and 4.2 µM | > 8.5 µM | > 7.4 | > 13 | > 9.5 | > 4.7 | > 18 | > 12 | > 5.1 µM | > 5.2 | > 4.4 | 12–22% | 90 to 120 |  |  | maximum dopamine transporter inhibition (DAT [1]; partial inhibition of dopamine uptake): 26%
9 | CCCC(C(=O)c1ccc2c(c1)OCO2)N1CCCC1 (stereo not drawn) [MDPV, 3,4-methylenedioxypyrovalerone, reference compound] |  | 12 | 0.1 ± 0.01 µM | 0.01 µM and 0.011 µM | 2.2 ± 0.1 | > 13 | > 9.5 | > 5 | 12 ± 2 | > 12 | 2 µM and 2.1 µM | > 5 | > 4.7 |  |  | 0.217 to 0.317 | 226 (143–350) | 
10 | CC(N)Cc1ccc(O)c(O)c1 (stereo not drawn) [HHA, 3,4-Dihydroxyamphetamine] | more than 200% |  |  |  |  |  |  |  |  |  |  |  |  |  |  |  |  | IC50 (NET [9]): 0.18 µM; IC50 (DAT [1]): 9.6 µM; IC50 [2]: 63 µM; Ki (NET [3]): 0.79 ± 0.3 µM; Ki (DAT [4]): 2.9 ± 0.3 µM; Ki (SERT): > 7.4 µM; Ki (dopamine D2 receptors): > 13 µM; Ki [5]: > 9.5 µM; Ki [6]: 2 ± 0.4 µM; Ki (5-HT1A receptor): > 18 µM; Ki (5-HT2A receptor): 9.2 ± 1.7 µM; Ki (5-HT2C receptor): > 5.1 µM; Ki (rat TAAR1): 1.9 ± 0.4 µM; Ki (mouse TAAR1): 1.4 ± 0.2 µM

From paper PMC8269116 (Journal of psychopharmacology (Oxford, England), 2019)
